For data set [1] the following is noted: Crystal; DTA.
Data set [2] in a line: Molar enthalpy of transition or fusion. As to conditions: Crystal; DSC.

We go through one compound from the NIST ThermoML archive (doi:10.1016/j.fluid.2013.05.008).

Numbers after ± are expanded uncertainties.

Consider `CCc1ccc(CCOc2ccc(CC3SC(=O)NC3=O)cc2)nc1.Cl` (configuration not stated), for which the Normal melting temperature in data set [1] was 195.62 ± 0.5 °C. For the same compound, the “Molar enthalpy of transition or fusion” value in data set [2] was 12 ± 0.335 kcal/mol.
